Measurements as given in patent US6737383B1, “Herbicidal oxadiazolidines” (priority 1999, dated 2004).

Columns and labels:
winter wheat [1] = assay: Test E winter wheat; assay type: in vivo, Triticum aestivum; conditions: Preemergence
winter wheat [2] = assay: Test E winter wheat; assay type: in vivo, Triticum aestivum; conditions: Postemergence
Method in brief: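 Visually scored herbicidal effect relative to untreated plants, taken ~21 to 28 days post-application; compound in solvent with surfactant; postemergence sprays at the 1- to 4-leaf stage.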

morningglory = assay: Test B pre/postemergence morningglory; assay type: in vivo, Ipomoea hederacea
Method in brief: (§1)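 Response is a visual 0-to-10 score relative to untreated plants, where 0 means no effect and 10 means complete control, taken twelve to sixteen days after application. Treatments went onto soil at planting and onto foliage of 1- to 4-leaf plants, using a surfactant-containing non-phytotoxic solvent.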

Italian ryegrass = assay: Test E Italian ryegrass; assay type: in vivo, Lolium multiflorum; conditions: Preemergence
blackgrass = assay: Test E blackgrass; assay type: in vivo, Alopecurus myosuroides; conditions: Preemergence
bamyardgrass = assay: Test B flood test barnyardgrass; assay type: in vivo, Echinochloa crus-galli
Method in brief: (§2)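 Plants were grown to the 2-leaf stage before treatment with test chemical, then held in a greenhouse for twelve to sixteen days. Injury was visually rated against untreated controls on a 0–10 scale, where 0 is no effect and 10 is complete control.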

rape = assay: Test B pre/postemergence rape; assay type: in vivo, Brassica napus
Method in brief: as §1

goosegrass = assay: Test D goosegrass; assay type: in vivo, Eleusine indica; conditions: Preemergence, 0 to 100 scale
Method in brief: (§3)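 Visual injury ratings, 0 = no injury to 100 = complete control, taken 14 to 21 days after treatment. Test chemicals were in a surfactant-containing non-phytotoxic solvent; preemergence treatments went onto the sandy loam surface of seeded greenhouse pots within one day of sowing.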

wild oat = assay: Test E wild oat; assay type: in vivo, Avena fatua; conditions: Preemergence, 0 to 100 scale where 0 is no effect and 100 is complete control
green foxtail = assay: Test E green foxtail; assay type: in vivo, Setaria viridis; conditions: Preemergence
Johnson grass = assay: Test D Johnson grass; assay type: in vivo, Sorghum halepense; conditions: Preemergence, 0 to 100 scale
Method in brief: as §3

winter barley = assay: Test E winter barley; assay type: in vivo, Hordeum vulgare; conditions: Preemergence
smallflower flatsedge = assay: Test B flood test smallflower flatsedge; assay type: in vivo, Cyperus difformis
Method in brief: as §2

[3] = Rate 500 g/ha, 0 to 100 scale where 0 is no effect and 100 is complete control
[4] = Rate 1000 g/ha, 0 to 100 scale where 0 is no effect and 100 is complete control
[5] = Postemergence, Rate 62 g/ha, scale 0 to 10, 0 is no effect, 10 is complete control
[6] = Postemergence, Rate 125 g/ha, scale of 0 to 10 where 0 is no effect and 10 is complete control
[7] = Postemergence, Rate 250 g/ha, scale 0 to 10, 0 no effect, 10 complete control
[8] = Preemergence, Rate 62 g/ha, scale 0 to 10 (0 no effect, 10 complete control)
[9] = Preemergence, Rate 125 g/ha, scale 0 to 10 (0 no effect, 10 complete control)
[10] = Preemergence, Rate 250 g/ha, scale of 0 to 10 where 0 is no effect and 10 is complete control
[11] = Preemergence, Rate 500 g/ha, scale 0 (no effect) to 10 (complete control)
[12] = Rate 500 g/ha, Postemergence, scale 0 to 10, 0 no effect, 10 complete control
[13] = Rate 250 g/ha, headed Pre-emergence (flood test species), scale 0 to 10 (0 no effect, 10 complete control)
[14] = Rate 500 g/ha, headed Pre-emergence (flood test species), scale 0 to 10 (0 no effect, 10 complete control)
[15] = Rate 500 g/ha, listed under Postemergence (flood test species), scale 0 to 10, 0 no effect, 10 complete control
[16] = Rate 125 g/ha, 0 no injury, 100 complete control

CC(C)N(C(=O)n1oc(=O)n(Cc2ccccc2)c1=O)c1ccccc1 [Compound 94]
Plant response rating, Wheat (winter) (winter wheat [1]; Rate 250 g/ha, 0 to 100 scale): 30
Plant response rating, Wheat (winter) (winter wheat [1]; [3]): 30
Plant response rating, Wheat (winter) (winter wheat [1]; [4]): 40
Plant response rating, Wheat (winter) (winter wheat [2]; Rate 250 g/ha, 0 to 100 scale (0 no effect, 100 complete control)): 0
Plant response rating, Wheat (winter) (winter wheat [2]; Rate 1000 g/ha, 0 to 100 scale, 0 is no effect and 100 is complete control): 0
Plant response rating, Wheat (winter) (winter wheat [2]; Rate 500 g/ha, 0 to 100 scale, 0 no effect, 100 complete control): 0
Morningglory plant response rating (morningglory; [5]): 10
Morningglory plant response rating (morningglory; [6]): 10
Morningglory plant response rating (morningglory; [7]): 10
Morningglory plant response rating (morningglory; [8]): 0
Plant response rating, Morningglory (morningglory; [9]): 0
Plant response rating, Morningglory (morningglory; [10]): 0
Morningglory plant response rating (morningglory; [11]): 0
Morningglory plant response rating (morningglory; [12]): 10
Plant response rating, I. Ryegrass (Italian ryegrass; Rate 250 g/ha, 0 to 100 scale): 40
Plant response rating, I. Ryegrass (Italian ryegrass; [3]): 60
Plant response rating, I. Ryegrass (Italian ryegrass; [4]): 60
Plant response rating, Blackgrass (blackgrass; Rate 250 g/ha, 0 to 100 scale): 60
Plant response rating, Blackgrass (blackgrass; [3]): 60
Plant response rating, Blackgrass (blackgrass; [4]): 60
Barnyardgrass plant response rating (bamyardgrass; [5]): 0
Barnyardgrass plant response rating (bamyardgrass; Rate 125 g/ha, Postemergence section (flood test species), scale 0 to 10, 0 no effect, 10 complete control): 0
Barnyardgrass plant response rating (bamyardgrass; [13]): 0
Plant response rating, Barnyardgrass (bamyardgrass; [14]): 0
Barnyardgrass plant response rating (bamyardgrass; [15]): 9
Barnyardgrass plant response rating (bamyardgrass; Rate 1000 g/ha, Pre-emergence (as headed), scale 0 to 10): 0
Barnyardgrass plant response rating (bamyardgrass; Rate 2000 g/ha, Pre-emergence (as headed), scale 0 to 10, 0 no effect, 10 complete control): 7
Barnyardgrass plant response rating (bamyardgrass; flood test, listed under Postemergence, Rate 250 g/ha, scale 0 to 10, 0 no effect, 10 complete control): 0
Rape plant response rating (rape; [5]): 1
Rape plant response rating (rape; [6]): 2
Rape plant response rating (rape; [7]): 2
Rape plant response rating (rape; [8]): 0
Plant response rating, Rape (rape; [9]): 0
Plant response rating, Rape (rape; [10]): 2
Rape plant response rating (rape; [11]): 5
Rape plant response rating (rape; [12]): 3
Plant response rating, Goosegrass (goosegrass; [16]): 85
Plant response rating, Goosegrass (goosegrass; Rate 500 g/ha): 100
Plant response rating, Wild oat (wild oat; Rate 500 g/ha): 40
Plant response rating, Wild oat (wild oat; Rate 1000 g/ha): 50
Plant response rating, Green foxtail (green foxtail; Rate 250 g/ha, 0 to 100 scale): 80
Plant response rating, Green foxtail (green foxtail; [3]): 90
Plant response rating, Green foxtail (green foxtail; [4]): 100
Plant response rating Johnsongrass (Johnson grass; [16]): 0
Plant response rating Johnsongrass (Johnson grass; Rate 500 g/ha): 20
Plant response rating, Barley (winter) (winter barley; Rate 250 g/ha, 0 to 100 scale): 40
Plant response rating, Barley (winter) (winter barley; [3]): 50
Plant response rating, Barley (winter) (winter barley; [4]): 50
S. Flatsedge plant response rating (smallflower flatsedge; Postemergence (flood test species), Rate 125 g/ha, scale of 0 to 10 where 0 is no effect and 10 is complete control): 0
S. Flatsedge plant response rating (smallflower flatsedge; [5]): 0
S. Flatsedge plant response rating (smallflower flatsedge; Pre-emergence, Rate 1000 g/ha, scale 0 to 10 (0 no effect, 10 complete control)): 0
Plant response rating, S. Flatsedge (smallflower flatsedge; Rate 250 g/ha, Postemergence (flood test), scale 0 to 10, 0 is no effect, 10 is complete control): 0
S. Flatsedge plant response rating (smallflower flatsedge; [13]): 0
Plant response rating, S. Flatsedge (smallflower flatsedge; [14]): 0
S. Flatsedge plant response rating (smallflower flatsedge; [15]): 9
S. Flatsedge plant response rating (smallflower flatsedge; Rate 2000 g/ha, Pre-emergence (as headed), scale 0 to 10): 8
